Experimental data taken from patent US20250353819A1, “ARYL HYDANTOIN COMPOUNDS AND METHODS OF USE” (priority 2022, published 2025).
Where “and” joins values, the source holds several entries; their conditions need not be identical. Equal entries are not always repeated. Where two headings read alike, the source gives them in different places.

Legend:
[1] = In vitro metabolic stability, mouse liver microsomes; assay type: in vitro ADME; conditions: mouse liver microsomes; read-out: m CLint
Experimental: In Vitro Metabolic Stability. As described by Charman et al. (2020), metabolic stability assays were performed by incubating test compounds in liver microsomes at 37° C. and 0.4 mg/mL protein concentration. The metabolic reaction was initiated by the addition of an NADPH-regenerating system and quenched at various time points over a 60 min incubation period by the addition of acetonitrile containing diazepam as internal standard. Control samples (containing no NADPH) were included (and quenched at 2, 30 and 60 min) to monitor for potential degradation in the absence of cofactor.

[2] = Pharmacokinetics in male Sprague Dawley rats; assay type: in vivo, rat; conditions: for Cmax: read-out: Plasma Cmax; for half-life: plasma
Experimental: IV and oral formulations were prepared using the same method. On the day of dosing the solid compound was dissolved in DMSO prior to addition of a saline solution (0.9% w/v). The samples were then mixed using vortexing producing colourless solutions. The IV formulation was filtered through a 0.22 μm syringe filter prior to dosing and the oral formulation was dosed without filtration.
Samples of arterial blood were collected up to 168 h post-dose. Urine samples were not collected as animals were housed in bedded cages. Arterial blood was collected directly into borosilicate vials (at 4° C.) containing heparin as anticoagulant. Once collected, blood samples were centrifuged, supernatant plasma was removed and stored frozen (−80° C.) until analysis by LC-MS. A summary of the bioanalytical method and assay validation details is included in Tables 14 and 15.
Plasma concentration versus time data were analysed using non-compartmental methods (PKSolver Version 2.0). Standard calculations for each pharmacokinetic parameter are listed below.

CC1(C)NC(=O)N(c2ccc(F)c(C(C)(F)F)c2)C1=O [Compound IC, 3-(3-(1,1-difluoroethyl)-4-fluorophenyl)-5,5-dimethylimidazolidine-2,4-dione]
microsomal CLint [1]: < 7 µL/min/mg
Plasma Concentration ([2]; IV 1 mg/kg, 0.17 h, individual rats): 1292 ng/mL and 1300 ng/mL and 908 ng/mL
Plasma Concentration ([2]; IV 1 mg/kg, 0.17 h, mean): 1167 ng/mL
Plasma Concentration ([2]; IV 1 mg/kg, 1.17 h, individual rats): 728 ng/mL and 549 ng/mL and 529 ng/mL
Plasma Concentration ([2]; IV 1 mg/kg, 1.17 h, mean): 602 ng/mL
Plasma Concentration ([2]; IV 1 mg/kg, 2.17 h, individual rats): 701 ng/mL and 669 ng/mL and 469 ng/mL
Plasma Concentration ([2]; IV 1 mg/kg, 2.17 h, mean): 613 ng/mL
Plasma Concentration ([2]; IV 1 mg/kg, 4.17 h, individual rats): 640 ng/mL and 662 ng/mL and 420 ng/mL
Plasma Concentration ([2]; IV 1 mg/kg, 4.17 h, mean): 574 ng/mL
Plasma Concentration ([2]; IV 1 mg/kg, 7.17 h, individual rats): 569 ng/mL and 641 ng/mL and 493 ng/mL
Plasma Concentration ([2]; IV 1 mg/kg, 7.17 h, mean): 568 ng/mL
Plasma Concentration ([2]; IV 1 mg/kg, 12.17 h, individual rats): 545 ng/mL and 473 ng/mL and 480 ng/mL
Plasma Concentration ([2]; IV 1 mg/kg, 12.17 h, mean): 499 ng/mL
Plasma Concentration ([2]; IV 1 mg/kg, 24.17 h, individual rats): 340 ng/mL and 403 ng/mL and 268 ng/mL
Plasma Concentration ([2]; IV 1 mg/kg, 24.17 h, mean): 337 ng/mL
Plasma Concentration ([2]; IV 1 mg/kg, 36.17 h, individual rats): 215 ng/mL and 266 ng/mL and 216 ng/mL
Plasma Concentration ([2]; IV 1 mg/kg, 36.17 h, mean): 232 ng/mL
Plasma Concentration ([2]; IV 1 mg/kg, 48.17 h, individual rats): 125 ng/mL and 170 ng/mL and 97 ng/mL
Plasma Concentration ([2]; IV 1 mg/kg, 48.17 h, mean): 130 ng/mL
Plasma Concentration ([2]; IV 1 mg/kg, 72.17 h, individual rats): 46.8 ng/mL and 62.2 ng/mL and 33.5 ng/mL
Plasma Concentration ([2]; IV 1 mg/kg, 72.17 h, mean): 47.5 ng/mL
Plasma Concentration ([2]; IV 1 mg/kg, 96.17 h, individual rats): 11.5 ng/mL and 28.1 ng/mL and 13.6 ng/mL
Plasma Concentration ([2]; IV 1 mg/kg, 96.17 h, mean): 17.7 ng/mL
Plasma Concentration ([2]; IV 1 mg/kg, 120.17 h, individual rats): 3.1 ng/mL and 7.0 ng/mL and 2.6 ng/mL
Plasma Concentration ([2]; IV 1 mg/kg, 120.17 h, mean): 4.2 ng/mL
Plasma Concentration ([2]; IV 1 mg/kg, 144.17 h, individual rats): 3.0 ng/mL
Plasma Concentration ([2]; IV 1 mg/kg, 144.17 h, mean): 3.0 ng/mL
clearance ([2]; male, Sprague Dawley, rat, in vivo, iv, 1 mg/kg, rats, IV 1 mg/kg, individual rats, read-out: Blood CL): 0.664 mL/min/kg
Vd ([2]; male, Sprague Dawley, rat, in vivo, iv, 1 mg/kg, rats, IV 1 mg/kg, individual rats, read-out: Blood Vss): 0.948 L/kg
AUC ([2]; male, Sprague Dawley, rat, in vivo, iv, 1 mg/kg, rats, IV 1 mg/kg, individual rats, read-out: Plasma AUCIV): 20900 ng·h/mL
clearance ([2]; male, Sprague Dawley, rat, in vivo, iv, 1 mg/kg, rats, IV 1 mg/kg, individual rats, read-out: Plasma CL): 0.797 mL/min/kg
Vd ([2]; male, Sprague Dawley, rat, in vivo, iv, 1 mg/kg, rats, IV 1 mg/kg, individual rats, read-out: Plasma Vss): 1.14 L/kg
AUC ([2]; male, Sprague Dawley, rat, in vivo, iv, 1 mg/kg, rats, IV 1 mg/kg, mean (n = 3), read-out: Plasma AUCIV): 20600 ng·h/mL
clearance ([2]; male, Sprague Dawley, rat, in vivo, iv, 1 mg/kg, rats, IV 1 mg/kg, mean (n = 3), read-out: Plasma CL): 0.825 mL/min/kg
Vd ([2]; male, Sprague Dawley, rat, in vivo, iv, 1 mg/kg, rats, IV 1 mg/kg, mean (n = 3), read-out: Plasma Vss): 1.25 L/kg
clearance ([2]; male, Sprague Dawley, rat, in vivo, iv, 1 mg/kg, rats, IV 1 mg/kg, mean, read-out: Blood CL): 0.687 mL/min/kg
Vd ([2]; male, Sprague Dawley, rat, in vivo, iv, 1 mg/kg, rats, IV 1 mg/kg, mean, read-out: Blood Vss): 1.04 L/kg
AUC ([2]; male, Sprague Dawley, rat, in vivo, po, 1 mg/kg, rats, PO 1 mg/kg, individual rats, read-out: Plasma AUCoral): 23300 ng·h/mL
Cmax ([2]; male, Sprague Dawley, rat, in vivo, po, 1 mg/kg, rats, PO 1 mg/kg, individual rats): 614 ng/mL
AUC ([2]; male, Sprague Dawley, rat, in vivo, po, 1 mg/kg, rats, PO 1 mg/kg, mean (n = 3), read-out: Plasma AUCoral): 20400 ng·h/mL
Cmax ([2]; male, Sprague Dawley, rat, in vivo, po, 1 mg/kg, rats, PO 1 mg/kg, mean (n = 3)): 572 ng/mL
Tmax ([2]; male, Sprague Dawley, rat, in vivo, po, 1 mg/kg, rats, PO 1 mg/kg, mean (n = 3), read-out: Tmax): 6.7 h
half-life ([2]; male, Sprague Dawley, rat, iv, 1 mg/kg, rats, IV 1 mg/kg, individual rats, read-out: Apparent t1/2 (converted)): 13 h
half-life ([2]; male, Sprague Dawley, rat, iv, 1 mg/kg, rats, IV 1 mg/kg, mean (n = 3), read-out: Apparent t1/2 (converted)): 15 h
half-life ([2]; male, Sprague Dawley, rat, other: IV and oral, 1 mg/kg, rats, following IV and oral administration 1 mg/kg, read-out: apparent half-life): 13 to 19 h
half-life ([2]; male, Sprague Dawley, rat, po, 1 mg/kg, rats, PO 1 mg/kg, individual rats, read-out: Apparent t1/2 (converted)): 16 h
half-life ([2]; male, Sprague Dawley, rat, po, 1 mg/kg, rats, PO 1 mg/kg, mean (n = 3), read-out: Apparent t1/2 (converted)): 16 h
Plasma Concentration ([2]; oral 1 mg/kg, 1.00 h, individual rats): 614 ng/mL and 430 ng/mL and 184 ng/mL
Plasma Concentration ([2]; oral 1 mg/kg, 1.00 h, mean): 409 ng/mL
Plasma Concentration ([2]; oral 1 mg/kg, 2.00 h, individual rats): 612 ng/mL and 506 ng/mL and 427 ng/mL
